Data: ChEMBL document CHEMBL3407429, “Multifunctional tacrine-trolox hybrids for the treatment of Alzheimer's disease with cholinergic, antioxidant, neuroprotective and hepatoprotective properties” (Eur J Med Chem, 2015)
Activity calls are given as the source filed them. The calls are words filed in the database; no cut-off is given here.

Experiments:
Cholinesterase [1] = molecular target: Cholinesterase (Homo sapiens, UniProt P06276)
Description: Inhibition of human serum BuChE using S-butyrylthiocholine iodide as substrate preincubated for 6 mins before substrate addition by Ellman's method

Acetylcholinesterase [2] = molecular target: Acetylcholinesterase (Homo sapiens, UniProt P22303)
Description: Inhibition of human erythrocyte AChE using acetylthiocholine iodide as substrate preincubated for 6 mins before substrate addition by Ellman's method

Cholinesterase [3] = molecular target: Cholinesterase (Equus caballus, UniProt P81908)
Description: Inhibition of equine serum BuChE using S-butyrylthiocholine iodide as substrate preincubated for 6 mins before substrate addition by Ellman's method

Acetylcholinesterase [4] = molecular target: Acetylcholinesterase (Electrophorus electricus, UniProt O42275)
Description: Inhibition of electric eel AChE using acetylthiocholine iodide as substrate preincubated for 6 mins before substrate addition by Ellman's method

in vitro = conditions: PAMPA
Description: Permeability of the compound in PBS and EtOH by PAMPA method

[5] = Cytotoxicity against rat PC12 cells assessed as reduction in cell viability at 1.563 to 12.5 uM after 48 hrs by MTT assay; format: cell-based; conditions: pc-12, 48 h
Rattus norvegicus [6] = assay: Hepatotoxicity in Sprague-Dawley rat at 6 umol/100g body weight, ip measured after 24 hrs by histomorphological study; format: toxicity, organism-based; conditions: in vivo
PC-12 [7] = assay: Neuroprotective activity against H2O2-induced oxidative stress in rat PC12 cells assessed as cell viability preincubated at 12.5 to 6.25 uM for 2 hrs before H2O2 addition measured after 24 hrs by MTT assay; format: functional, cell-based
Rattus norvegicus [8] = assay: Hepatotoxicity in Sprague-Dawley rat assessed as increase in aspartate aminotransferase activity in serum at 6 umol/100g body weight, ip measured up to 72 hrs; format: toxicity, organism-based; conditions: in vivo
PC-12 [9] = assay: Neuroprotective activity against H2O2-induced oxidative stress in rat PC12 cells assessed as inhibition of cell death preincubated at 3.125 to 6.25 uM for 2 hrs before H2O2 addition measured after 24 hrs by MTT assay; format: functional, cell-based
Rattus norvegicus [10] = assay: Hepatotoxicity in Sprague-Dawley rat assessed as increase in alanine aminotransferase activity in serum at 6 umol/100g body weight, ip measured up to 72 hrs; format: toxicity, organism-based; conditions: in vivo
[11] = molecular target: Acetylcholinesterase (Electrophorus electricus) (UniProt O42275); assay: Mixed-type inhibition of electric eel AChE using acetylthiocholine iodide as substrate by Lineweaver-Burk double reciprocal plot method
Chain of Acetylcholinesterase (Electrophorus electricus) (O42275 24-633 limits assumed): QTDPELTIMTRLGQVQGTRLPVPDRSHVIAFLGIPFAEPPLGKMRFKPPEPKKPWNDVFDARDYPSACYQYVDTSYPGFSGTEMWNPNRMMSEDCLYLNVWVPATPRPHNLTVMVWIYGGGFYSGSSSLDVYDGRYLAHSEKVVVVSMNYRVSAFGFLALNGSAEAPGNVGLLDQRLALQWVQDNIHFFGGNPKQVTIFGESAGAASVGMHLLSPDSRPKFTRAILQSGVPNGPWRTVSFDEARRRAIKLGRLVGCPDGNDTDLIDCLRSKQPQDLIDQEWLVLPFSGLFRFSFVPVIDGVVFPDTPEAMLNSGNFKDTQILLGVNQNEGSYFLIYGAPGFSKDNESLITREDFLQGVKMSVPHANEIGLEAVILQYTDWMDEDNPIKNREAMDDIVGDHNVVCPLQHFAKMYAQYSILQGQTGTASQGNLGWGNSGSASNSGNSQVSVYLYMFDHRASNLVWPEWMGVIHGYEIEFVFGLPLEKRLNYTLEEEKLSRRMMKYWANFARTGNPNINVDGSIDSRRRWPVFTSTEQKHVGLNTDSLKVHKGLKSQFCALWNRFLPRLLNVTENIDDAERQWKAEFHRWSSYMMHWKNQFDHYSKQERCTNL

Chain of Acetylcholinesterase (Electrophorus electricus, UniProt O42275) (O42275 whole entry): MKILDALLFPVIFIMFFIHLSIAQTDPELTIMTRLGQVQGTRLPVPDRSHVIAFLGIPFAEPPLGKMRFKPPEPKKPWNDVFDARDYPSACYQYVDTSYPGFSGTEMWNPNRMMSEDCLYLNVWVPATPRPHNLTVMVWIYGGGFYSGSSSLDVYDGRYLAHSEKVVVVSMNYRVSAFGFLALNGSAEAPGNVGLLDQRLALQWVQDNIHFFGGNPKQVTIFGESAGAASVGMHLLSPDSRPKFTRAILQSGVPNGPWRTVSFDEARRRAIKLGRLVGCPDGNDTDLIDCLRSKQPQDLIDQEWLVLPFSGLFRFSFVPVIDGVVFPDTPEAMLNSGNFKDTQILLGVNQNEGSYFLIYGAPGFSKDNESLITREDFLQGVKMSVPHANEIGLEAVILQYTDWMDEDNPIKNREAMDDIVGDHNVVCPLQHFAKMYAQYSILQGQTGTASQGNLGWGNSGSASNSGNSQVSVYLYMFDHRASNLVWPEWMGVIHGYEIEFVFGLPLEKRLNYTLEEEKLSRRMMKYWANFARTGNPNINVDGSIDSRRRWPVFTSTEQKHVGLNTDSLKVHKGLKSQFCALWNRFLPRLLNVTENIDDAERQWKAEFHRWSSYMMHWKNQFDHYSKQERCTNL
Chain of Acetylcholinesterase (Homo sapiens, UniProt P22303) (P22303 whole entry): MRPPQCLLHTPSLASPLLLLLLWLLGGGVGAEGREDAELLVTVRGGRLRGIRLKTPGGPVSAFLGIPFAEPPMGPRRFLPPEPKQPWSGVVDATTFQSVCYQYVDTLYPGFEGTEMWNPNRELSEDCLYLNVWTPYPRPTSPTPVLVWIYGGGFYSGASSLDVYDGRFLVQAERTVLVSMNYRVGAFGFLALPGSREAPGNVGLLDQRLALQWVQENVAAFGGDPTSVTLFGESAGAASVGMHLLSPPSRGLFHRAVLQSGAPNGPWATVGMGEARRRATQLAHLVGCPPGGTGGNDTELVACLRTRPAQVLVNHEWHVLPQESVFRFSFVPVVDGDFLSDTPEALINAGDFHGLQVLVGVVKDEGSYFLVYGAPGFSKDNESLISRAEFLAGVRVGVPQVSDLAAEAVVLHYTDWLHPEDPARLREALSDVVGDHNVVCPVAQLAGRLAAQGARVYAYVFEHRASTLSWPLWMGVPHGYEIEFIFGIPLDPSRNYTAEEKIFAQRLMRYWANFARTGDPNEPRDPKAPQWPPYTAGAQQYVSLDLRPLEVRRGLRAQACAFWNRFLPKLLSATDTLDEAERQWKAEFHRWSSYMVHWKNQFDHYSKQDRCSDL
Chain of Cholinesterase (Equus caballus, UniProt P81908) (P81908 whole entry): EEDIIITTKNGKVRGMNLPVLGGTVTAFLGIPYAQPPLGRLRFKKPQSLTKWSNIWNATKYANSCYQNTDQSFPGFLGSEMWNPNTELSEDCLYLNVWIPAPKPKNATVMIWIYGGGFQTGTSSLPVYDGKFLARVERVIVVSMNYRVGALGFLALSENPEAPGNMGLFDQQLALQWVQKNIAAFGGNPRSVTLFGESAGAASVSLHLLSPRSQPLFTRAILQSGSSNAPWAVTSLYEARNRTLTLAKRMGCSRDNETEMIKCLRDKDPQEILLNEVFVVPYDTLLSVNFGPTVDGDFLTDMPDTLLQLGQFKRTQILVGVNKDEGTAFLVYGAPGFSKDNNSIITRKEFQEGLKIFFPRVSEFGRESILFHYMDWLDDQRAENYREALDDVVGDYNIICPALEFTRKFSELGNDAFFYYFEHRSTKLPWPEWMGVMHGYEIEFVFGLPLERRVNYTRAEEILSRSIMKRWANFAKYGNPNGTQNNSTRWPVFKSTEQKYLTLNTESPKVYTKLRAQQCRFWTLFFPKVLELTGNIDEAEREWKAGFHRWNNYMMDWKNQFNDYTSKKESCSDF
Chain of Cholinesterase (Homo sapiens, UniProt P06276) (P06276 whole entry): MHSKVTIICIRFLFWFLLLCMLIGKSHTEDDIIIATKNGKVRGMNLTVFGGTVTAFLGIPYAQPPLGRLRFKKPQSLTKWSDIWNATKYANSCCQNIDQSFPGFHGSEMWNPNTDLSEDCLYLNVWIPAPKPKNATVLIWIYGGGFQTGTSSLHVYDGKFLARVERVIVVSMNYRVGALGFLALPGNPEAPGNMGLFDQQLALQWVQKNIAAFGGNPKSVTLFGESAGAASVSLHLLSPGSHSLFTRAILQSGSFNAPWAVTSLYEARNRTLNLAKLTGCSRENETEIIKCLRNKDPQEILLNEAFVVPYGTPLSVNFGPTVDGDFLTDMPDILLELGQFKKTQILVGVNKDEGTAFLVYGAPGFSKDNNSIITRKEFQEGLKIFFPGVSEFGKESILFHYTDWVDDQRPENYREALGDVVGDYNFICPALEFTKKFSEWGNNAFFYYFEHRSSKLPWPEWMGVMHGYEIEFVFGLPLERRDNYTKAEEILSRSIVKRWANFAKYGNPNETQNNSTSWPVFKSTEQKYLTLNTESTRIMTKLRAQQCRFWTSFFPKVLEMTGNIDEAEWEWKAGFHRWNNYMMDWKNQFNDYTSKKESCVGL

| Structure (SMILES) | IC50 (Cholinesterase [1]) [nM] | IC50 (Acetylcholinesterase [2]) [nM] | IC50 (Cholinesterase [3]) [nM] | IC50 [nM] | IC50 (Acetylcholinesterase [4]) [nM] | Papp (in vitro) [×10⁻⁶ cm/s] | also measured |
| --- | --- | --- | --- | --- | --- | --- | --- |
| Cc1c(C)c2c(c(C)c1O)CCC(C)(C(=O)NCCCCCCCCCCNc1c3c(nc4ccccc14)CCCC3)O2 (configuration not stated) | 110 | 453 | 263 | 43.2 | 387 |  |  |
| C[C@]12CCC(=O)C=C1CC[C@@H]1[C@@H]2CC[C@@]2(C)[C@H]1CC[C@]2(O)C(=O)CO [CORTODOXONE] |  |  |  |  |  | 2.5 |  |
| CCn1cc(C(=O)O)c(=O)c2cc(F)c(N3CCNC(C)C3)c(F)c21 (configuration not stated) [LOMEFLOXACIN] |  |  |  |  |  | 0.8 |  |
| Cc1c(C)c2c(c(C)c1O)CCC(C)(C(=O)NCCCCCCNc1c3c(nc4ccccc14)CCCC3)O2 (configuration not stated) | 20.5 | 23.5 | 22.2 | 48.7 | 9.8 | 8.87 | Activity [5]: Non-toxic; Activity (Rattus norvegicus [6]): Non-toxic; inhibition (PC-12 [7]): inactive; Activity (Rattus norvegicus [8]): Non-toxic; inhibition (PC-12 [9]): Active; Activity (Rattus norvegicus [10]): Non-toxic; inhibition [11]: Active |
| Cc1c(C)c2c(c(C)c1O)CCC(C)(C(=O)NCCCCNc1c3c(nc4ccccc14)CCCC3)O2 (configuration not stated) | 5.2 | 535 | 15.6 | 44.2 | 558 |  |  |
| Cc1c(C)c2c(c(C)c1O)CCC(C)(C(=O)NCCCCCCCCNc1c3c(nc4ccccc14)CCCC3)O2 (configuration not stated) | 34.7 | 226 | 151 | 47.3 | 228 |  |  |
| Cc1c(C)c2c(c(C)c1O)CCC(C)(C(=O)NCCCCCCCNc1c3c(nc4ccccc14)CCCC3)O2 (configuration not stated) | 19.2 | 144 | 61.7 | 46.9 | 92.4 |  |  |
| Cc1c(C)c2c(c(C)c1O)CCC(C)(C(=O)O)O2 (configuration not stated) [TROLOX] |  |  |  | 35.6 |  |  |  |
| Cc1c(C)c2c(c(C)c1O)CCC(C)(C(=O)NCCNc1c3c(nc4ccccc14)CCCC3)O2 (configuration not stated) | 56.3 | 284 | 41.3 | 30.4 | 150 |  |  |
| CN1C(C(=O)Nc2ccccn2)=C(O)c2ccccc2S1(=O)=O [PIROXICAM] |  |  |  |  |  | 0.6 |  |
| Cc1c(C)c2c(c(C)c1O)CCC(C)(C(=O)NCCCCCNc1c3c(nc4ccccc14)CCCC3)O2 (configuration not stated) | 10.2 | 215 | 35.4 | 40.7 | 250 |  |  |
